US20120244567A1, “HUMAN EMBRYONIC STEM CELLS FOR HIGH THROUGHOUT DRUG SCREENING” (BUCK INSTITUTE FOR RESEARCH ON AGING, priority 2009, published 2012)
Structures can show the parent of a compound that is named as a salt.

Legend:
[1] = tested on: hESC-derived NSCs; experiment: ATP assay in hESC-derived NSCs (96-well, primary screen and retest); assay type: cell-based, human; design: cytotoxicity: dose or concentration left out as unconfirmed; toxicity to NSCs (reduced ATP concentrations) / ATP levels in NSC population: unit of the concentration uncertain
Description: EBs were then cultured for additional 2-3 days in suspension in neural induction media containing DMEM/F12 with Glutamax, 1×NEAA, 1×N2 and FGF2 (20 ng/ml) prior to attachment on cell culture plates. […] To obtain a pure population of NSCs, rosettes were manually isolated and dissociated into single cells using Accutase. The NSCs population was expanded in Neurobasal media containing 1×NEAA, 1×L-Glutamine (2 mM), 1×B27, LIF and FGF2 20 ng/ml.
Media was changed every day for hESCs and every other day for NSCs and additionally changed prior to drug treatment. The cells were treated with compounds from the NINDS library diluted in […] of either ESC or NSC media to a final concentration of 2.5 mM in 0.01% DMSO. […] For all sampling, ESC and NSC plates were processed in parallel for one drug or control condition at a time.
(§1) For ATP measurements, the media was removed, cells were washed 1× in milliQ water and reconstituted in […] ATP-Lite Mammalian Lysis Buffer and shaken for 5 minutes. Two […] aliquots of lysed cells were replated onto separate 96 well plates for later protein measurements.
(§2) To identify compounds that are toxic to hESCs, hESC-derived NSCs, or both, we screened 720 FDA-approved drugs of the NINDS collection by testing the toxicity of each drug at a dose of 2.5 mM. For endpoint measurement of cell death caused by drug toxicity, we used a widely accepted ATP assay that measures changes in ATP level as an indicator of cellular response to cell death. In this assay, total ATP content per well was measured and normalized to the total cellular protein.
Three concentrations of each compound (1 mM, 2.5 mM and 10 mM) were used in the retest.

[2] = tested on: hESCs; experiment: ATP assay in hESCs (96-well); assay type: cell-based, human; design: dose or concentration left out as unconfirmed; settings: 48 h (FIG. 5)
Description: Media was changed every day for hESCs and every other day for NSCs and additionally changed prior to drug treatment. […] […] For all sampling, ESC and NSC plates were processed in parallel for one drug or control condition at a time.
as §1, §2

[3] = tested on: NSCs; experiment: Cell death observed in NSCs in 35-mm dishes; assay type: cell-based, human
Text: NSCs and dopaminergic neurons grown in 35-mm dishes were exposed to amiodarone HCl.

[4] = tested on: human fetal-derived astrocytes; experiment: Effect on human astrocytes (cell death); assay type: cell-based; settings: up to 48 hours after treatment
Text: Media was changed every other day and cells were passaged once a week at a 1:4 ratio.

[5] = tested on: 2102Ep cells; experiment: Effect on immortal cell line 2102Ep; assay type: cell-based, human; settings: 48 hours after treatment, data not shown
Text: Media was changed every day and cells were passaged every 3-4 days at a ratio of between 1:4 to 1:6.

[6] = tested on: hESCs and hESC-derived NSCs; experiment: Comparative ATP screening on hESCs and hESC-derived NSCs (ratio ESC/NSC or NSC/ESC); design: hit class in primary screen / ESC/NSC: dose or concentration left out as unconfirmed; settings: NINDS primary screen, ATP relative to DMSO controls
Description: Hits were defined based on the ability of a compound to affect ATP levels relative to DMSO controls on each plate.

Structure (SMILES): CCCCc1oc2ccccc2c1C(=O)c1cc(I)c(OCCN(CC)CC)c(I)c1 [Amiodarone Hydrochloride]
- ATP levels in NSC population ([1]; 10 (unit uncertain), 48 h (FIG. 5)): less than 15 % of the control mean
- cytotoxicity ([1]; Homo sapiens, NINDS primary screen, 48 hours, read-out: NSC ATP values below the control mean): ≥ 15%
- effect on NSC survival among dose responsive compounds ([1]; retest, FIG. 2 panel B): most dramatic effect on NSC survival
- effect seen in hESC (ATP levels) [2]: intermediate between NSCs and dopaminergic neurons
- time after drug exposure at which cell death was observed in NSCs ([3]; 35-mm dishes): 2 h
- cell death in NSCs ([3]; by 8 hours, 35-mm dishes): more than 90%
- cell death in similarly treated NSCs ([3]; within one hour of drug administration): massive cell death
- astrocyte cell death [4]: did not cause astrocyte cell death
- effect on 2102Ep cells [5]: no effect
- hit class in primary screen [6]: NSC Killers
